Test results as given in ChEMBL document CHEMBL5131440, “Antischistosomal tetrahydro-γ-carboline sulfonamides” (Bioorg Med Chem Lett, 2022).
≈ marks a conversion by molar mass, not a printed value.

Legend:
[1] = Solubility of compound in pH 6.5 phosphate buffer by nephelometry; assay type: physicochemical
[2] = Solubility of compound in pH 2 0.01 M HCl by nephelometry; assay type: physicochemical
[3] = Lipophilicity, log D of compound at pH 7.4 by gradient HPLC analysis; assay type: physicochemical; details: buffer
[4] = Cytotoxicity against rat L6 cells assessed as reduction in cell viability measured after 70 hrs by alamar blue reagent based fluorescence assay; assay type: toxicity
[5] = Intrinsic clearance in mouse liver microsomes assessed per mg protein at 1 uM preincubated for 5 to 10 mins followed by NADPH-regenerating system addition and measured after 2 to 60 mins by LC-MS/MS analysis; assay type: ADME, Microsome; details: time 2-60 min
[6] = Intrinsic clearance in human liver microsomes assessed per mg protein at 1 uM preincubated for 5 to 10 mins followed by NADPH-regenerating system addition and measured after 2 to 60 mins by LC-MS/MS analysis; assay type: ADME, Microsome; details: time 2-60 min
Schistosoma mansoni [7] = experiment: Antischistosomal activity against Schistosoma mansoni adult worms at 10 uM measured at 24 hrs interval for 72 hrs relative to control; assay type: functional
Schistosoma mansoni [8] = experiment: Antischistosomal activity against Schistosoma mansoni adult worms measured at 24 hrs interval for 72 hrs; assay type: functional, organism-based
Schistosoma mansoni [9] = experiment: Antischistosomal activity against Schistosoma mansoni NTS assessed as reduction in parasite viability measured at 24 hrs interval for 72 hrs by bright-field microscopy; assay type: functional, organism-based
Schistosoma mansoni [10] = experiment: Antischistosomal activity against Schistosoma mansoni Liberian adult worms assessed as reduction in worm viability measured after 72 hrs by microscopy; assay type: functional, organism-based

Row | SMILES | solubility kinetic [1] | solubility kinetic [2] | logD [3] | IC50 at 70 h [4] | intrinsic clearance (CLint) [5] | intrinsic clearance [6] | Activity (Schistosoma mansoni [7]) | IC50 (Schistosoma mansoni [8]) | IC50 (Schistosoma mansoni [9]) | IC50 (Schistosoma mansoni [10])
1 | Cc1ccc(S(=O)(=O)N2CCc3[nH]c4ccccc4c3C2)cc1 | 1.6 µg/mL (≈ 4.9 µM) | 1.6 µg/mL (≈ 4.9 µM) | 4.1 | 29 µM | 540 µL/min | 170 µL/min |  |  |  | 
2 | NC(=O)c1ccc2[nH]c3c(c2c1)CN(S(=O)(=O)c1ccc(F)cc1)CC3 | 6.3 µg/mL (≈ 16.9 µM) | 12.5 µg/mL (≈ 33.5 µM) | 2.6 | 100 µM | 81 µL/min | 124 µL/min |  |  |  | 
3 | O=C(Nc1ccc(F)cc1)N1CCc2[nH]c3ccccc3c2C1 | 6.3 µg/mL (≈ 20.4 µM) | 6.3 µg/mL (≈ 20.4 µM) | 3.4 | 85 µM | 130 µL/min | 82 µL/min |  |  |  | 
4 | O=S(=O)(c1ccc(C(F)(F)F)cc1)N1CCc2[nH]c3ccccc3c2C1 | < 1.6 µg/mL | < 1.6 µg/mL | 4.3 | 81 µM | 431 µL/min | 50 µL/min |  |  |  | 
5 | O=S(=O)(c1ccccc1)N1CCc2[nH]c3ccccc3c2C1 | 1.6 µg/mL (≈ 5.12 µM) | 1.6 µg/mL (≈ 5.12 µM) | 3.9 | 100 µM | > 866 µL/min | 250 µL/min |  |  |  | 
6 | O=C(c1ccc(F)cc1)N1CCc2[nH]c3ccccc3c2C1 | 6.3 µg/mL (≈ 21.4 µM) | 6.3 µg/mL (≈ 21.4 µM) | 3.3 | 69 µM | 184 µL/min | 111 µL/min | 24% |  |  | 
7 | O=S(=O)(c1ccc(F)cc1)N1CCc2[nH]c3ccc(F)cc3c2C1 | 1.6 µg/mL (≈ 4.59 µM) | 3.1 µg/mL (≈ 8.9 µM) | 4.1 | 150 µM | > 866 µL/min | 105 µL/min |  |  |  | 
8 | O=S(=O)(c1ccc(Cl)cc1)N1CCc2[nH]c3ccccc3c2C1 | 1.6 µg/mL (≈ 4.61 µM) | 1.6 µg/mL (≈ 4.61 µM) | 4.2 | 53 µM | 607 µL/min | 74 µL/min |  |  |  | 
9 | O=S(=O)(c1ccc(F)cc1)N1CCc2[nH]c3ccccc3c2CC1 | < 1.6 µg/mL | < 1.6 µg/mL | 4.2 | 83 µM | > 866 µL/min | 123 µL/min |  |  |  | 
10 | O=S(=O)(Cc1ccc(F)cc1)N1CCc2[nH]c3ccccc3c2C1 | 1.6 µg/mL (≈ 4.65 µM) | 3.1 µg/mL (≈ 9 µM) | 3.9 | 56 µM | 688 µL/min | 135 µL/min |  |  |  | 
11 | O=S(=O)(c1ccc(Br)cc1)N1CCc2[nH]c3ccccc3c2C1 | < 1.6 µg/mL | < 1.6 µg/mL | 4.4 | 26 µM | 446 µL/min | 102 µL/min | 67% | 4.4 µM | 4.9 µM | 
12 | O=C(O)c1ccc(S(=O)(=O)N2CCc3[nH]c4ccccc4c3C2)cc1 | 25 µg/mL (≈ 70.1 µM) | 3.1 µg/mL (≈ 8.7 µM) | 1.6 | 190 µM | < 7 µL/min | 11 µL/min |  |  |  | 
13 | O=C(c1ccc2[nH]c3c(c2c1)CN(S(=O)(=O)c1ccc(F)cc1)CC3)N1CCOCC1 | 6.3 µg/mL (≈ 14.2 µM) | 12.5 µg/mL (≈ 28.2 µM) | 3 | 130 µM | 120 µL/min | 89 µL/min |  |  |  | 
14 | CS(=O)(=O)c1ccc(S(=O)(=O)N2CCc3[nH]c4ccccc4c3C2)cc1 | 3.1 µg/mL (≈ 7.94 µM) | 3.1 µg/mL (≈ 7.94 µM) | 3.4 | > 250 µM | 156 µL/min | 57 µL/min | 43% |  | 3.3 µM | 
15 | O=S(=O)(C1CCOCC1)N1CCc2[nH]c3ccccc3c2C1 | 25 µg/mL (≈ 78 µM) | 25 µg/mL (≈ 78 µM) | 2.9 | 160 µM | 674 µL/min | 34 µL/min |  |  |  | 
16 | O=S(=O)(c1ccc(F)cc1)N1CCc2c([nH]c3ccccc23)C1 | < 1.6 µg/mL | < 1.6 µg/mL | 4.1 | 53 µM | 445 µL/min | 120 µL/min |  |  |  | 
17 | O=S(=O)(c1cccnc1)N1CCc2[nH]c3ccccc3c2C1 | 6.3 µg/mL (≈ 20.1 µM) | 12.5 µg/mL (≈ 39.9 µM) | 3.1 | 110 µM | 561 µL/min | 117 µL/min |  |  |  | 
18 | O=S(=O)(c1ccc(F)cc1)N1CCc2[nH]c3ccccc3c2C1 | 1.6 µg/mL (≈ 4.84 µM) | 1.6 µg/mL (≈ 4.84 µM) | 4 | 52 µM | > 866 µL/min | 120 µL/min | 59% | 4.2 µM | 1.2 µM | 
19 | O=C1CCN(S(=O)(=O)c2ccc(F)cc2)CC(=O)c2ccccc2N1 | 50 µg/mL (≈ 138 µM) | 50 µg/mL (≈ 138 µM) | 2.5 | > 280 µM | 107 µL/min | 40 µL/min |  |  |  | 
20 | O=S(=O)(c1ccc(F)cc1)N1CCc2[nH]c3ncccc3c2C1 | 12.5 µg/mL (≈ 37.7 µM) | 50 µg/mL (≈ 151 µM) | 3.2 | 82 µM | 339 µL/min | 62 µL/min |  |  |  | 
21 | CS(=O)(=O)N1CCc2[nH]c3ccccc3c2C1 | 25 µg/mL (≈ 99.9 µM) | 25 µg/mL (≈ 99.9 µM) | 2.6 | 290 µM | 21 µL/min | 12 µL/min |  |  |  | 
22 | O=S(=O)(c1cnc[nH]1)N1CCc2[nH]c3ccccc3c2C1 | 50 µg/mL (≈ 165 µM) | 50 µg/mL (≈ 165 µM) | 2 | 170 µM | 17 µL/min | < 7 µL/min |  |  |  | 
23 | O=C(O)c1ccc2[nH]c3c(c2c1)CN(S(=O)(=O)c1ccc(F)cc1)CC3 | 50 µg/mL (≈ 134 µM) | 3.1 µg/mL (≈ 8.28 µM) | 1.4 | 240 µM | < 7 µL/min | < 7 µL/min |  |  |  | 
24 | N#Cc1ccc2[nH]c3c(c2c1)CN(S(=O)(=O)c1ccc(F)cc1)CC3 | 1.6 µg/mL (≈ 4.5 µM) | 1.6 µg/mL (≈ 4.5 µM) | 3.8 | 33 µM | 230 µL/min | 399 µL/min |  |  |  | 
25 | NC(=O)Cn1c2c(c3ccccc31)CN(S(=O)(=O)c1ccc(F)cc1)CC2 | 3.1 µg/mL (≈ 8 µM) | 3.1 µg/mL (≈ 8 µM) |  | 150 µM | 176 µL/min | 75 µL/min |  |  |  | 
26 | O=C(C1CCCCC1)N1CC(=O)N2CCc3ccccc3C2C1 (centres undefined) [PRAZIQUANTEL] |  |  |  |  |  |  |  |  |  | 0.077 µM
